Experimental data reported in US20120028897A1, “METHODS AND COMPOSITIONS FOR THE TREATMENT OF FLUID RETENTION DISORDERS” (priority 2008, published 2012).
Read-outs that look alike come from different tables or passages of the source. Bridges are numbered along the chain shown (N, C = ends). Where no end group is shown, it is not given here.

B1: Human UgnB (B isoform of human uroguanylin) (peptide)
peptide: NDDCELCVNVACTGCL
modifications: disulfide 4-12, 7-15

How the values were obtained:
[1] = 37° C., cited from earlier work
[2] = biological target: guanylate cyclase C (GC-C) receptor (UniProt P25092 24-1073, limits assumed); assay: cell-based or functional assay
Chain of guanylate cyclase C (GC-C) receptor (P25092 24-1073 limits assumed): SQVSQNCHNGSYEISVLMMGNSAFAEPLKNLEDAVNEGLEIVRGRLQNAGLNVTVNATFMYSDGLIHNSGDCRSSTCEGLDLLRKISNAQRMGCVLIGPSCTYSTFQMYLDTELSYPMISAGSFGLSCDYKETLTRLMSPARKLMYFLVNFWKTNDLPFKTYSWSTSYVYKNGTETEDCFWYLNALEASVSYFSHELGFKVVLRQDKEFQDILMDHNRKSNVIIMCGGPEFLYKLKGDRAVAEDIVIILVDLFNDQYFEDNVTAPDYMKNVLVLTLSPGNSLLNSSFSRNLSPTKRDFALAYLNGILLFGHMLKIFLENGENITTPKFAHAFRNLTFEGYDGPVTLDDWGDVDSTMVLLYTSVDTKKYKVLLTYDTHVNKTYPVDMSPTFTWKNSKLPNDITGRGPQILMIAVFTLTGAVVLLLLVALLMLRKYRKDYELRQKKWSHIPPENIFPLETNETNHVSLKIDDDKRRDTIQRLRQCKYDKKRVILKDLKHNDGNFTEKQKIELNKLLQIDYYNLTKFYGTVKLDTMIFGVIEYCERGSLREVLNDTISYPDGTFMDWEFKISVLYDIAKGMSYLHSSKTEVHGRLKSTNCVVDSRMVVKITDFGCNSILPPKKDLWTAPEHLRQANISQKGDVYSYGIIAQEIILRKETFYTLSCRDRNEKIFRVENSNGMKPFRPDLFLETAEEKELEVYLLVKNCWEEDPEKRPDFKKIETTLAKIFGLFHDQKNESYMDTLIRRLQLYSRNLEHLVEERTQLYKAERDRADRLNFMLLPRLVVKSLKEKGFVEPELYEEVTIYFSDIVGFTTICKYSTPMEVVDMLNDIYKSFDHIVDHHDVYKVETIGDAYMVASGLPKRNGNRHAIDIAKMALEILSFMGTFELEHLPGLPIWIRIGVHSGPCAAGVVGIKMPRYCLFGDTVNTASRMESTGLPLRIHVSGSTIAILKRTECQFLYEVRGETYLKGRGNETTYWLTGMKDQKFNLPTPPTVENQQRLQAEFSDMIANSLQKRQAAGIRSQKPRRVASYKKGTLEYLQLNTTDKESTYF

Molecule	half life of each stereoisomer (A/B interconversion) [1]	half life of each stereoisomer (A/B interconversion) ([1]; listed as human Ugn)	cyclic GMP synthesis in T84 cells, potency against huUgnA [2]
CC(C)C[C@H](NC(=O)[C@@H]1CSSC[C@@H]2NC(=O)[C@H](CC(C)C)NC(=O)[C@H](CCC(=O)O)NC(=O)[C@@H](NC(=O)[C@H](CC(=O)O)NC(=O)[C@H](CC(=O)O)NC(=O)[C@@H](N)CC(N)=O)CSSC[C@H](NC(=O)[C@H](C)NC(=O)[C@H](C(C)C)NC(=O)[C@H](CC(N)=O)NC(=O)[C@H](C(C)C)NC2=O)C(=O)N[C@@H]([C@@H](C)O)C(=O)NCC(=O)N1)C(=O)O [huUgn, Asn Asp Asp Cys Glu Leu Cys Val Asn Val Ala Cys Thr Gly Cys Leu]	approximately 2 days	about 2 days	
B1			> 100 fold less potent than huUgnA
